Experimental data taken from article PMC11268479, “Delineation of the complete reaction cycle of a natural Diels–Alderase” (Chemical Science, 2024).
“And” between values parts separate entries of the source, which are not always exact repeats. Identical values can stand only once. Like-named read-outs stand apart in the source and are kept apart here.

Tests used:
[1] = target: AbyU (Micromonospora maris); experiment: Single turnover stopped-flow kinetics of the AbyU catalysed conversion of 5 to 6 (excess enzyme, absorbance 325 nm); assay type: biochemical, Micromonospora maris AB-18-032; settings: single turnover, 10 s, 20 °C, pH 7.5, 10% acetonitrile, eqn (2); read-out: Ki from substrate inhibition fit of kobs2 vs [5] (binding affinity for slower reacting species)
Text: (§1) To further investigate the AbyU catalysed reaction stopped-flow kinetic studies were undertaken employing substrate 5. […] This feature is lost upon cyclisation and thus constitutes a viable spectrophotometric probe to monitor the AbyU catalysed conversion of substrate 5 to product 6 (Fig. 1b). […] We assessed the quality of the fit from the plotted residuals.
(§2) As the concentration of 5 increases, a concomitant decrease in the rate constants kobs1 and kobs2 is observed. […] These different conformational populations cannot be individually resolved using ensemble kinetic measurements unless their rate constants differ by at least an order of magnitude, therefore, the observed rate constant reflects average behaviour. The relative equilibrium saturation constants observed for two different binding conformations can be obtained by examining the dependence of kobs2 on (Fig. 3b). From Fig. 3b, the data present as apparent substrate inhibition. In this case, we can envisage that the ‘slow’ reacting species effectively acts as a weak inhibitor relative to the ‘fast’ reacting species, thus presenting as apparent substrate inhibition.
(§3) It should be noted that the species reflected by the third exponential phase has a larger equilibrium constant than the faster reacting species, with a rate of reaction approximately 20-fold slower than the steady-state rate of the enzyme (Fig. S6 ^†). As it represents an insignificant component of the steady-state reaction, we have not analysed this phase any further.
(§4) Stopped-Flow (SF) experiments were performed using a Hi-Tech Scientific KinetAsyst Stopped-Flow System spectrophotometer (TgK Scientific, Bradford on Avon, UK). Both syringe 1 and 2 were washed with ddH2O and SF buffer (18 mM Tris–HCl, 135 mM NaCl, 10% acetonitrile, pH 7.5). 10% acetonitrile was maintained in both syringes at all times to ensure solubility of the substrate. The stop-flow was zeroed and references were taken using SF buffer in each syringe for burst phase kinetics. Purified recombinant AbyU in SEC buffer (20 mM Tris–HCl, 150 mM NaCl, pH 7.5), was diluted to a final concentration of 800 μM AbyU in SF buffer. This solution of AbyU was placed in syringe 1 to obtain references for the single turnover experiments. For the multiple turnover experiments, AbyU was added to syringe 1 at a concentration of 2 μM (diluted in SF buffer). Likewise, substrate 5 was diluted in SF buffer to double the reaction concentration and placed in syringe 2. 50 μL from each syringe was injected into the mixing chamber and measurement immediately commenced. Reactions were observed using a logarithmic timebase over either 1000 s or 10 s. For the 1000 s experiments, the timeframe was split into 15 cycles, each with 200 points, each of which was distributed in a logarithmic manner. This ensured a high number of readings in the first seconds of the experiment. […] This was compounded by the weak affinity of substrate 5 for the plastic components in the SF system, rendering it impossible to precisely replicate the concentration of 5 in the reaction chamber over multiple syringes. To measure the uncatalysed rate of substrate cyclisation, the stop flow was zeroed and references were taken using SF buffer in both syringes. Varying concentrations of substrate 5 were added to syringe 2 and measurements were taken using a linear time base over 10 seconds. All reactions were performed at 20 °C.
(§5) Results were fitted using Graphpad Prism. […]

[2] = target: T1, AbyU (Micromonospora maris, UniProt Z9P124SIT8, F95Y, form not given); experiment: as above; assay type: biochemical, Micromonospora maris AB-18-032
Text: as §1, §2, §3, §4, §5

[3] = target: T1, AbyU; experiment: Multiple turnover (burst phase) stopped-flow kinetics of the AbyU catalysed conversion of 5 to 6; assay type: biochemical, Micromonospora maris AB-18-032
Procedure: To formally identify the rate-limiting step in the AbyU catalysed cycloaddition reaction, a multiple turnover kinetics experiment was undertaken. The stopped-flow transients (Fig. 5a) reveal two distinguishable burst phases when fitted to eqn (3), a derivative of eqn (1), which incorporates a linear phase to account for multiple turnovers in the steady-state.3 [drawing 3]
When the data for kburst1 are fitted to eqn (4), kon and koff can be determined to be 0.88 ± 0.03 μM^−1 s^−1 and 3.4 ± 0.71 s^−1, for substrate binding and dissociation respectively, in this conformation.4 kburst1 = kburst1on[S] + kburst1off
The relationship between the slower burst phase, kburst2 and substrate concentration, in contrast, fits well to, and is highly representative of, a two-step binding interaction (eqn (5) (ref. [32])).5 kburst2 = 1/2(p − q)where:5.1 p = kburst2on1 × [S] + kburst2off1 + kburst2on2 + kburst2off25.2 [drawing 4] 5.3 r = kburst2on1 × [S] × kburst2on2 + kburst2off1 × kburst2off2 + kburst2on1 × [S] × kburst2off2
as §4
Results were fitted using Graphpad Prism. Data obtained before 2 ms was discarded, reflecting the dead-time of the instrument. Data were fit to equations as outlined in the text. The 10 s single turnover kinetic data were fitted to two exponentials with a sloping baseline (eqn (3)). […] To circumvent this, the data between 3 s and 10 s were separately fitted to a straight line to determine the initial rate of k3. In order to fully analyse the change in the reaction rate with respect to the concentration of 5, 3–6 transients at each substrate concentration were taken and the rate and amplitude parameters derived from the fit appropriate for each transient (Fig. S4 and S9 ^†). The background rate of reaction (Fig. S11 ^†) was removed from the steady-state reaction and from the linear portion of k3. The other exponential phases occur too rapidly for the background rate of reaction to have an appreciable influence on the data. […]

[4] = target: T1, AbyU; experiment: Steady-state kinetics of the AbyU catalysed conversion of 5 to 6 (Michaelis–Menten fit); assay type: biochemical, Micromonospora maris AB-18-032
Procedure: Fig. 5 Burst phase characterisation of the AbyU catalysed conversion of 5 to 6. (a) Example of the transient observed (blue) in the reaction of 54 μM 5 with 1 μM AbyU, shown on a logarithmic scale with a linear scale shown inset for comparison. The transient is fitted to eqn (3) (black line, see Fig. S9 ^† for fitting analysis). (b) The rate of turnover in each burst phase as a function of the concentration of 5. Data for kburst1 is fitted to a one-step binding model (eqn (4)) and kburst2 is fitted to a two-step binding model (eqn (5)). (c) Steady-state kinetics fitted to the Michaelis–Menten equation (eqn (S1) ^†). […] This is perhaps unsurprising, as the conformationally constricted product must by necessity dissociate from the ‘closed’ active site. Steady-state kinetics reveal the impact that product release has upon the overall rate. […] Stopped-Flow (SF) experiments were performed using a Hi-Tech Scientific KinetAsyst Stopped-Flow System spectrophotometer (TgK Scientific, Bradford on Avon, UK). […] This ensured a high number of readings in the first seconds of the experiment. […] The amplitude of the change in absorbance was converted to concentration using the following measured absorbance coefficient for substrate 5: ε325 nm = 13 200 M^−1 cm^−1 and the following measured absorbance coefficient for product 6: ε325 nm = 1085 M^−1 cm^−1. […]

[5] = Uncatalysed (spontaneous) cyclisation of substrate 5, stopped-flow; assay type: physicochemical; settings: SF buffer, no enzyme, 10 s, 20 °C, pH 7.5, 10% acetonitrile
Procedure: Stopped-Flow (SF) experiments were performed using a Hi-Tech Scientific KinetAsyst Stopped-Flow System spectrophotometer (TgK Scientific, Bradford on Avon, UK). Both syringe 1 and 2 were washed with ddH2O and SF buffer (18 mM Tris–HCl, 135 mM NaCl, 10% acetonitrile, pH 7.5). 10% acetonitrile was maintained in both syringes at all times to ensure solubility of the substrate. The stop-flow was zeroed and references were taken using SF buffer in each syringe for burst phase kinetics. Purified recombinant AbyU in SEC buffer (20 mM Tris–HCl, 150 mM NaCl, pH 7.5), was diluted to a final concentration of 800 μM AbyU in SF buffer. […] This ensured a high number of readings in the first seconds of the experiment. […]
Results were fitted using Graphpad Prism. […] The amplitude of the change in absorbance was converted to concentration using the following measured absorbance coefficient for substrate 5: ε325 nm = 13 200 M^−1 cm^−1 and the following measured absorbance coefficient for product 6: ε325 nm = 1085 M^−1 cm^−1. […] Initial concentrations of substrate 5 were calculated from the absorbance at t = 0, to account for uncatalysed substrate turnover, and the tendency of the substrate to have a weak affinity with the plastic present in the stop-flow apparatus. […] The slope of the line was determined for each substrate concentration and averaged over 3–5 repeats.

[6] = burst phase 1, eqn (4), 20 °C, pH 7.5
[7] = burst phase 2, two-step binding, eqn (5), 20 °C, pH 7.5

T1 sequence (Z9P124SIT8 1-160 F95Y): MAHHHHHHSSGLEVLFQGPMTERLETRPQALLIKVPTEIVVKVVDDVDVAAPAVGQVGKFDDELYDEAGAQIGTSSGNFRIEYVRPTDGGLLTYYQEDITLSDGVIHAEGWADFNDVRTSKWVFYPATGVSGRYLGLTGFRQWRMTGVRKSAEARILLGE
Sequence of AbyU (Micromonospora maris) (Z9P124SIT8 1-160 F95Y): as above

- Ki [1]: 54900 ± 14500 nM
- k3 ([2]; binding in ES3 conformation (third phase), 20 °C, pH 7.5): ≈5.7 × 10^−4 ± 3.8 × 10^−5 μM^−1 s^−1
- k−3 ([2]; dissociation from ES3 conformation (third phase), 20 °C, pH 7.5): ≈6.9 × 10^−3 ± 1.9 × 10^−3 s^−1
- rate of third exponential phase slower than the steady-state rate of the enzyme ([2]; ratio): approximately 20 fold
- Km ([2]; single turnover, 10 s, 20 °C, pH 7.5, 10% acetonitrile, eqn (2), read-out: Km from substrate inhibition fit of kobs2 vs [5] (approximation of binding affinity for faster-reacting conformation(s))): 13.2 ± 3.2 µM
- k5 (cyclisation once substrate is bound) ([3]; 20 °C, pH 7.5): N.D. (very quick)
- Kd ([3]; apparent binding constant, two-step route, read-out: Kapp = K2 × K4): 1300 nM
- Kd ([3]; binding constant, ES2 conformation, read-out: K2 = k−2/k2): 1970 ± 4240 nM
- Kd ([3]; binding constant, ES conformation, read-out: K1 = k−1/k1): 3860 ± 940 nM
- k1 (kon, kburst1, substrate binding, one-step) [3, 6]: 880000 ± 30000 M⁻¹ s⁻¹
- k−1 (koff, kburst1, substrate dissociation) [3, 6]: 3.4 ± 0.71 s⁻¹ and 3.41 ± 0.71 s⁻¹
- k2 (on rate, kburst2, sub-optimal conformation) [3, 7]: 360000 ± 460000 M⁻¹ s⁻¹
- k4 (rearrangement within active site to most productive conformation) [3, 7]: 1.37 ± 2.38 s⁻¹
- k−2 (off rate, kburst2, sub-optimal conformation) [3, 7]: 0.71 ± 0.62 s⁻¹
- k−4 ([3]; burst phase 2, two-step binding, reverse rearrangement, 20 °C, pH 7.5): 0.90 ± 2.29 s⁻¹
- K4 (k−4/k4) ([3]; equilibrium constant of rearrangement): 0.66 ± 2.81
- kcat slower than the initial rate of kburst1 ([4]; ratio): around 230 times
- kcat ([4]; steady-state, 20 °C, pH 7.5, 10% acetonitrile): 0.116 ± 0.005 s⁻¹
- kspont (spontaneous cyclisation of 5) [5]: 1250 ± 17 M⁻¹ s⁻¹
Compound: C=C1OC(=O)C(C(=O)[C@H](C)C[C@H](C)C(=O)/C=C/C=C/C=C/C)=C1OC [compound 5]
